From PubChem BioAssay (NCI)
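Where inhibition never reached the appropriate level, the endpoint shown equals the highest concentration tested. Otherwise, values were interpolated linearly from a five-concentration, 48-hour dose response in 96-well plates. GI50 marks 50% less growth. TGI: concentration producing complete growth inhibition.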

Legend:
Experiment in all cases: NCI-60 cell line screen, 48 h
SR leukemia = tested on: SR leukemia
RPMI-8226 leukemia = tested on: RPMI-8226 leukemia
SF-539 CNS = tested on: SF-539 CNS
SF-295 CNS = tested on: SF-295 CNS
OVCAR-5 ovarian = tested on: OVCAR-5 ovarian
OVCAR-4 ovarian = tested on: OVCAR-4 ovarian
RXF 393 renal = tested on: RXF 393 renal
K-562 leukemia = tested on: K-562 leukemia
CCRF-CEM leukemia = tested on: CCRF-CEM leukemia
NCI-H23 lung = tested on: NCI-H23 lung
NCI-H460 lung = tested on: NCI-H460 lung
SK-MEL-5 melanoma = tested on: SK-MEL-5 melanoma
BT-549 breast = tested on: BT-549 breast
HT29 colon = tested on: HT29 colon
SNB-75 CNS = tested on: SNB-75 CNS
NCI-H522 lung = tested on: NCI-H522 lung
NCI/ADR-RES ovarian = tested on: NCI/ADR-RES ovarian
HOP-92 NSCLC = tested on: HOP-92 NSCLC
SNB-19 CNS = tested on: SNB-19 CNS
UACC-62 melanoma = tested on: UACC-62 melanoma
A498 renal = tested on: A498 renal
UACC-257 melanoma = tested on: UACC-257 melanoma
ACHN renal = tested on: ACHN renal
CAKI-1 renal = tested on: CAKI-1 renal
OVCAR-3 ovarian = tested on: OVCAR-3 ovarian
HS 578T breast = tested on: HS 578T breast
COLO 205 colon = tested on: COLO 205 colon
MALME-3M melanoma = tested on: MALME-3M melanoma
HL-60(TB) leukemia = tested on: HL-60(TB) leukemia
T-47D breast = tested on: T-47D breast
SF-268 CNS = tested on: SF-268 CNS
NCI-H226 lung = tested on: NCI-H226 lung
HCT-15 colon = tested on: HCT-15 colon
MDA-MB-231 breast = tested on: MDA-MB-231 breast
SW-620 colon = tested on: SW-620 colon
M14 melanoma = tested on: M14 melanoma
LOX IMVI melanoma = tested on: LOX IMVI melanoma
U251 CNS = tested on: U251 CNS
PC-3 prostate = tested on: PC-3 prostate
TK-10 renal = tested on: TK-10 renal
KM12 colon = tested on: KM12 colon
DU-145 prostate = tested on: DU-145 prostate
SK-OV-3 ovarian = tested on: SK-OV-3 ovarian
HOP-62 NSCLC = tested on: HOP-62 NSCLC
MOLT-4 leukemia = tested on: MOLT-4 leukemia
SN12C renal = tested on: SN12C renal
OVCAR-8 ovarian = tested on: OVCAR-8 ovarian
HCC-2998 colon = tested on: HCC-2998 colon
A549 NSCLC = tested on: A549 NSCLC
UO-31 renal = tested on: UO-31 renal
SK-MEL-28 melanoma = tested on: SK-MEL-28 melanoma
MDA-MB-435 = tested on: MDA-MB-435
MCF7 breast = tested on: MCF7 breast
IGROV1 ovarian = tested on: IGROV1 ovarian
HCT-116 colon = tested on: HCT-116 colon
SK-MEL-2 melanoma = tested on: SK-MEL-2 melanoma

Compound `Cc1ccc2c(n1)C(=O)C(Cl)=C(Nc1ccc(C)c(C)c1)C2=O` has a GI50 (SR leukemia) of 1530 nM, a TGI (SR leukemia) of 5750 nM and a GI50 (RPMI-8226 leukemia) of 1540 nM. It also gave a TGI (RPMI-8226 leukemia) of 4700 nM, a GI50 (SF-539 CNS) of 1770 nM and a TGI (SF-539 CNS) of 3230 nM. The GI50 (SF-295 CNS) was 1740 nM, the TGI (SF-295 CNS) was 3510 nM and the GI50 (OVCAR-5 ovarian) was 2230 nM. For the same compound, the TGI (OVCAR-5 ovarian) was 4370 nM, the GI50 (OVCAR-4 ovarian) was 1360 nM and the TGI (OVCAR-4 ovarian) was 2810 nM. The GI50 (RXF 393 renal) was 1500 nM, the TGI (RXF 393 renal) was 2850 nM and the GI50 (K-562 leukemia) was 2040 nM. For the same compound, the TGI (K-562 leukemia) was over 100000 nM, the GI50 (CCRF-CEM leukemia) was 2460 nM and the TGI (CCRF-CEM leukemia) was 6720 nM. It also gave a GI50 (NCI-H23 lung) of 1200 nM, a TGI (NCI-H23 lung) of 3950 nM and a GI50 (NCI-H460 lung) of 2070 nM. It also gave a TGI (NCI-H460 lung) of 12000 nM, a GI50 (SK-MEL-5 melanoma) of 1380 nM and a TGI (SK-MEL-5 melanoma) of 2740 nM. For the same compound, the GI50 (BT-549 breast) was 1410 nM, the TGI (BT-549 breast) was 2790 nM and the GI50 (HT29 colon) was 24700 nM. The TGI (HT29 colon) was over 100000 nM, the GI50 (SNB-75 CNS) was 1730 nM and the TGI (SNB-75 CNS) was 3870 nM. For the same compound, the GI50 (NCI-H522 lung) was 2000 nM, the TGI (NCI-H522 lung) was 4900 nM and the GI50 (NCI/ADR-RES ovarian) was 2210 nM. The TGI (NCI/ADR-RES ovarian) was 8260 nM, the GI50 (HOP-92 NSCLC) was 1980 nM and the TGI (HOP-92 NSCLC) was 4100 nM. For the same compound, the GI50 (SNB-19 CNS) was 1590 nM, the TGI (SNB-19 CNS) was 4070 nM and the GI50 (UACC-62 melanoma) was 1780 nM. The TGI (UACC-62 melanoma) was 4360 nM, the GI50 (A498 renal) was 10600 nM and the TGI (A498 renal) was 25300 nM. For the same compound, the GI50 (UACC-257 melanoma) was 1560 nM, the TGI (UACC-257 melanoma) was 2980 nM and the GI50 (ACHN renal) was 1680 nM. For the same compound, the TGI (ACHN renal) was 3130 nM, the GI50 (CAKI-1 renal) was 1590 nM and the TGI (CAKI-1 renal) was 3160 nM. It also gave a GI50 (OVCAR-3 ovarian) of 590 nM, a TGI (OVCAR-3 ovarian) of 1890 nM and a GI50 (HS 578T breast) of 2260 nM. It also gave a TGI (HS 578T breast) of 6470 nM, a GI50 (COLO 205 colon) of 17200 nM and a TGI (COLO 205 colon) of 44300 nM. The GI50 (MALME-3M melanoma) was 2130 nM, the TGI (MALME-3M melanoma) was 4220 nM and the GI50 (HL-60(TB) leukemia) was 2270 nM. The TGI (HL-60(TB) leukemia) was 5700 nM, the GI50 (T-47D breast) was 975 nM and the TGI (T-47D breast) was 3220 nM. The GI50 (SF-268 CNS) was 2200 nM, the TGI (SF-268 CNS) was 6510 nM and the GI50 (NCI-H226 lung) was 1720 nM. It also gave a TGI (NCI-H226 lung) of 5920 nM, a GI50 (HCT-15 colon) of 1120 nM and a TGI (HCT-15 colon) of 2880 nM. It also gave a GI50 (MDA-MB-231 breast) of 1620 nM, a TGI (MDA-MB-231 breast) of 3810 nM and a GI50 (SW-620 colon) of 2070 nM. The TGI (SW-620 colon) was 4510 nM, the GI50 (M14 melanoma) was 1460 nM and the TGI (M14 melanoma) was 2960 nM. It also gave a GI50 (LOX IMVI melanoma) of 726 nM, a TGI (LOX IMVI melanoma) of 3420 nM and a GI50 (U251 CNS) of 1480 nM. The TGI (U251 CNS) was 2960 nM, the GI50 (PC-3 prostate) was 1690 nM and the TGI (PC-3 prostate) was 12700 nM. For the same compound, the GI50 (TK-10 renal) was 7480 nM, the TGI (TK-10 renal) was 19700 nM and the GI50 (KM12 colon) was 2960 nM. The TGI (KM12 colon) was over 100000 nM, the GI50 (DU-145 prostate) was 1720 nM and the TGI (DU-145 prostate) was 3420 nM. It also gave a GI50 (SK-OV-3 ovarian) of 22000 nM, a TGI (SK-OV-3 ovarian) of over 100000 nM and a GI50 (HOP-62 NSCLC) of 2490 nM. For the same compound, the TGI (HOP-62 NSCLC) was 11200 nM, the GI50 (MOLT-4 leukemia) was 1920 nM and the TGI (MOLT-4 leukemia) was 6590 nM. For the same compound, the GI50 (SN12C renal) was 2020 nM, the TGI (SN12C renal) was 5270 nM and the GI50 (OVCAR-8 ovarian) was 2270 nM. For the same compound, the TGI (OVCAR-8 ovarian) was 6320 nM, the GI50 (HCC-2998 colon) was 2120 nM and the TGI (HCC-2998 colon) was 4690 nM. The GI50 (A549 NSCLC) was 3370 nM, the TGI (A549 NSCLC) was 17300 nM and the GI50 (UO-31 renal) was 1310 nM. For the same compound, the TGI (UO-31 renal) was 2710 nM, the GI50 (SK-MEL-28 melanoma) was 2070 nM and the TGI (SK-MEL-28 melanoma) was 4280 nM. The GI50 (MDA-MB-435) was 1800 nM, the TGI (MDA-MB-435) was 3760 nM and the GI50 (MCF7 breast) was 1010 nM. It also gave a TGI (MCF7 breast) of 2910 nM, a GI50 (IGROV1 ovarian) of 1850 nM and a TGI (IGROV1 ovarian) of 4100 nM. It also gave a GI50 (HCT-116 colon) of 1150 nM, a TGI (HCT-116 colon) of 2640 nM and a GI50 (SK-MEL-2 melanoma) of 2540 nM. It also gave a TGI (SK-MEL-2 melanoma) of 6570 nM.
